Assay results: the NIST ThermoML archive (doi:10.1016/j.jct.2018.10.006)

Assay: molar heat capacity at constant pressure
Details: 101.33 kPa, Crystal 2

O=P([O-])([O-])[O-].[Cs+].[Ni+2] [cesium nickel monophosphate]
Details | molar heat capacity at constant pressure [J/K/mol]
5 K, Small (less than 1 g) adiabatic calorimetry | 0.898
6 K, Small (less than 1 g) adiabatic calorimetry | 1.272
6.21 K, Small (less than 1 g) adiabatic calorimetry | 1.255
6.51 K, Small (less than 1 g) adiabatic calorimetry | 1.413
6.82 K, Small (less than 1 g) adiabatic calorimetry | 1.605
7 K, Small (less than 1 g) adiabatic calorimetry | 1.721
7.13 K, Small (less than 1 g) adiabatic calorimetry | 1.788
7.51 K, Small (less than 1 g) adiabatic calorimetry | 1.987
7.97 K, Small (less than 1 g) adiabatic calorimetry | 2.195
8 K, Small (less than 1 g) adiabatic calorimetry | 2.203
8.43 K, Small (less than 1 g) adiabatic calorimetry | 2.444
8.87 K, Small (less than 1 g) adiabatic calorimetry | 2.627
9 K, Small (less than 1 g) adiabatic calorimetry | 2.719
9.32 K, Small (less than 1 g) adiabatic calorimetry | 2.902
9.77 K, Small (less than 1 g) adiabatic calorimetry | 3.176
10 K, Small (less than 1 g) adiabatic calorimetry | 3.351
10.24 K, Small (less than 1 g) adiabatic calorimetry | 3.492
10.72 K, Small (less than 1 g) adiabatic calorimetry | 3.908
11.23 K, Small (less than 1 g) adiabatic calorimetry | 4.299
11.76 K, Small (less than 1 g) adiabatic calorimetry | 4.756
12.55 K, Small (less than 1 g) adiabatic calorimetry | 5.496
13.09 K, Small (less than 1 g) adiabatic calorimetry | 6.119
13.82 K, Small (less than 1 g) adiabatic calorimetry | 6.826
14.55 K, Small (less than 1 g) adiabatic calorimetry | 7.566
15 K, Small (less than 1 g) adiabatic calorimetry | 8.032
15.28 K, Small (less than 1 g) adiabatic calorimetry | 8.431
16.02 K, Small (less than 1 g) adiabatic calorimetry | 9.146
16.77 K, Small (less than 1 g) adiabatic calorimetry | 9.844
17.78 K, Small (less than 1 g) adiabatic calorimetry | 10.73
18.33 K, Small (less than 1 g) adiabatic calorimetry | 11.31
19.12 K, Small (less than 1 g) adiabatic calorimetry | 12.07
19.94 K, Small (less than 1 g) adiabatic calorimetry | 13.03
20 K, Small (less than 1 g) adiabatic calorimetry | 13.06
21.96 K, Small (less than 1 g) adiabatic calorimetry | 15.22
24.23 K, Small (less than 1 g) adiabatic calorimetry | 17.56
25 K, Small (less than 1 g) adiabatic calorimetry | 18.54
26.66 K, Small (less than 1 g) adiabatic calorimetry | 20.67
29.06 K, Small (less than 1 g) adiabatic calorimetry | 23.5
30 K, Small (less than 1 g) adiabatic calorimetry | 24.62
31.53 K, Small (less than 1 g) adiabatic calorimetry | 26.28
34.01 K, Small (less than 1 g) adiabatic calorimetry | 28.63
35 K, Small (less than 1 g) adiabatic calorimetry | 29.56
36.46 K, Small (less than 1 g) adiabatic calorimetry | 30.81
38.9 K, Small (less than 1 g) adiabatic calorimetry | 33.32
40 K, Small (less than 1 g) adiabatic calorimetry | 34.26
41.34 K, Small (less than 1 g) adiabatic calorimetry | 35.6
43.79 K, Small (less than 1 g) adiabatic calorimetry | 38.06
45 K, Small (less than 1 g) adiabatic calorimetry | 39.07
46.25 K, Small (less than 1 g) adiabatic calorimetry | 40.1
48.71 K, Small (less than 1 g) adiabatic calorimetry | 42.56
50 K, Small (less than 1 g) adiabatic calorimetry | 43.9
51.87 K, Small (less than 1 g) adiabatic calorimetry | 45.56
53.99 K, Small (less than 1 g) adiabatic calorimetry | 47.57
56.52 K, Small (less than 1 g) adiabatic calorimetry | 50.12
58.51 K, Small (less than 1 g) adiabatic calorimetry | 51.87
60 K, Small (less than 1 g) adiabatic calorimetry | 52.93
61.71 K, Small (less than 1 g) adiabatic calorimetry | 54.33
63.47 K, Small (less than 1 g) adiabatic calorimetry | 55.42
67.49 K, Small (less than 1 g) adiabatic calorimetry | 58.66
68.37 K, Small (less than 1 g) adiabatic calorimetry | 59.49
70 K, Small (less than 1 g) adiabatic calorimetry | 60.41
70.84 K, Small (less than 1 g) adiabatic calorimetry | 61.18
73.34 K, Small (less than 1 g) adiabatic calorimetry | 62.62
75.82 K, Small (less than 1 g) adiabatic calorimetry | 64.02
78.29 K, Small (less than 1 g) adiabatic calorimetry | 65.34
80 K, Small (less than 1 g) adiabatic calorimetry | 66.38
80.75 K, Small (less than 1 g) adiabatic calorimetry | 66.68
81.73 K, Small (less than 1 g) adiabatic calorimetry | 67.23
83.21 K, Small (less than 1 g) adiabatic calorimetry | 67.91
85.55 K, Small (less than 1 g) adiabatic calorimetry | 69.26
85.67 K, Small (less than 1 g) adiabatic calorimetry | 69.26
88.13 K, Small (less than 1 g) adiabatic calorimetry | 70.96
88.91 K, Small (less than 1 g) adiabatic calorimetry | 71.04
90 K, Small (less than 1 g) adiabatic calorimetry | 71.65
92.27 K, Small (less than 1 g) adiabatic calorimetry | 73.08
95.63 K, Small (less than 1 g) adiabatic calorimetry | 74.82
98.99 K, Small (less than 1 g) adiabatic calorimetry | 76.75
100 K, Small (less than 1 g) adiabatic calorimetry | 77.58
102.34 K, Small (less than 1 g) adiabatic calorimetry | 78.95
105.7 K, Small (less than 1 g) adiabatic calorimetry | 80.67
109.06 K, Small (less than 1 g) adiabatic calorimetry | 82.69
110 K, Small (less than 1 g) adiabatic calorimetry | 82.93
112.41 K, Small (less than 1 g) adiabatic calorimetry | 84.06
115.76 K, Small (less than 1 g) adiabatic calorimetry | 85.56
119.1 K, Small (less than 1 g) adiabatic calorimetry | 86.8
120 K, Small (less than 1 g) adiabatic calorimetry | 87.3
122.44 K, Small (less than 1 g) adiabatic calorimetry | 88.22
125.78 K, Small (less than 1 g) adiabatic calorimetry | 89.96
129.12 K, Small (less than 1 g) adiabatic calorimetry | 91.04
130 K, Small (less than 1 g) adiabatic calorimetry | 91.38
132.46 K, Small (less than 1 g) adiabatic calorimetry | 92.37
135.8 K, Small (less than 1 g) adiabatic calorimetry | 93.29
139.13 K, Small (less than 1 g) adiabatic calorimetry | 94.95
140 K, Small (less than 1 g) adiabatic calorimetry | 95.37
142.46 K, Small (less than 1 g) adiabatic calorimetry | 96.61
145.78 K, Small (less than 1 g) adiabatic calorimetry | 97.86
149.1 K, Small (less than 1 g) adiabatic calorimetry | 99.03
150 K, Small (less than 1 g) adiabatic calorimetry | 99.52
152.42 K, Small (less than 1 g) adiabatic calorimetry | 100.44
155.74 K, Small (less than 1 g) adiabatic calorimetry | 101.69
159.04 K, Small (less than 1 g) adiabatic calorimetry | 103.27
160 K, Small (less than 1 g) adiabatic calorimetry | 103.68
162.35 K, Small (less than 1 g) adiabatic calorimetry | 104.76
165.65 K, Small (less than 1 g) adiabatic calorimetry | 106.01
168.95 K, Small (less than 1 g) adiabatic calorimetry | 107.84
170 K, Small (less than 1 g) adiabatic calorimetry | 107.84
172.25 K, Small (less than 1 g) adiabatic calorimetry | 108.75
175.54 K, Small (less than 1 g) adiabatic calorimetry | 109.83
178.83 K, Small (less than 1 g) adiabatic calorimetry | 111.5
180 K, Small (less than 1 g) adiabatic calorimetry | 111.83
182.12 K, Small (less than 1 g) adiabatic calorimetry | 112.83
185.4 K, Small (less than 1 g) adiabatic calorimetry | 113.82
188.67 K, Small (less than 1 g) adiabatic calorimetry | 115.24
190 K, Small (less than 1 g) adiabatic calorimetry | 115.4
191.94 K, Small (less than 1 g) adiabatic calorimetry | 116.32
195.21 K, Small (less than 1 g) adiabatic calorimetry | 116.98
198.48 K, Small (less than 1 g) adiabatic calorimetry | 118.07
200 K, Small (less than 1 g) adiabatic calorimetry | 118.73
201.74 K, Small (less than 1 g) adiabatic calorimetry | 119.56
205 K, Small (less than 1 g) adiabatic calorimetry | 120.14
208.27 K, Small (less than 1 g) adiabatic calorimetry | 121.06
210 K, Small (less than 1 g) adiabatic calorimetry | 121.64
211.53 K, Small (less than 1 g) adiabatic calorimetry | 122.14
214.79 K, Small (less than 1 g) adiabatic calorimetry | 122.56
218.05 K, Small (less than 1 g) adiabatic calorimetry | 123.64
220 K, Small (less than 1 g) adiabatic calorimetry | 124.38
221.32 K, Small (less than 1 g) adiabatic calorimetry | 124.22
224.58 K, Small (less than 1 g) adiabatic calorimetry | 125.63
227.84 K, Small (less than 1 g) adiabatic calorimetry | 126.38
230 K, Small (less than 1 g) adiabatic calorimetry | 126.88
231.11 K, Small (less than 1 g) adiabatic calorimetry | 127.13
234.38 K, Small (less than 1 g) adiabatic calorimetry | 128.21
237.64 K, Small (less than 1 g) adiabatic calorimetry | 129.12
240 K, Small (less than 1 g) adiabatic calorimetry | 129.37
240.88 K, Small (less than 1 g) adiabatic calorimetry | 129.62
244.15 K, Small (less than 1 g) adiabatic calorimetry | 130.7
247.41 K, Small (less than 1 g) adiabatic calorimetry | 131.53
250 K, Small (less than 1 g) adiabatic calorimetry | 132.03
250.68 K, Small (less than 1 g) adiabatic calorimetry | 132.28
253.95 K, Small (less than 1 g) adiabatic calorimetry | 133.03
257.21 K, Small (less than 1 g) adiabatic calorimetry | 133.7
260 K, Small (less than 1 g) adiabatic calorimetry | 134.94
260.47 K, Small (less than 1 g) adiabatic calorimetry | 135.11
263.74 K, Small (less than 1 g) adiabatic calorimetry | 135.94
266.99 K, Small (less than 1 g) adiabatic calorimetry | 137.19
270 K, Small (less than 1 g) adiabatic calorimetry | 138.19
270.25 K, Small (less than 1 g) adiabatic calorimetry | 138.69
273.15 K, Small (less than 1 g) adiabatic calorimetry | 139.27
273.51 K, Small (less than 1 g) adiabatic calorimetry | 139.52
276.77 K, Small (less than 1 g) adiabatic calorimetry | 140.43
280 K, Small (less than 1 g) adiabatic calorimetry | 141.68
280.02 K, Small (less than 1 g) adiabatic calorimetry | 141.6
283.26 K, Small (less than 1 g) adiabatic calorimetry | 142.68
286.51 K, Small (less than 1 g) adiabatic calorimetry | 143.84
289.74 K, Small (less than 1 g) adiabatic calorimetry | 145
290 K, Small (less than 1 g) adiabatic calorimetry | 145.42
292.94 K, Small (less than 1 g) adiabatic calorimetry | 146.5
296.16 K, Small (less than 1 g) adiabatic calorimetry | 147.25
298.15 K, Small (less than 1 g) adiabatic calorimetry | 148.41
299.38 K, Small (less than 1 g) adiabatic calorimetry | 148.58
300 K, Small (less than 1 g) adiabatic calorimetry | 149.08
302.59 K, Small (less than 1 g) adiabatic calorimetry | 150.41
305.8 K, Small (less than 1 g) adiabatic calorimetry | 151.41
309.01 K, Small (less than 1 g) adiabatic calorimetry | 152.57
310 K, Small (less than 1 g) adiabatic calorimetry | 152.65
312.23 K, Small (less than 1 g) adiabatic calorimetry | 153.82
315.44 K, Small (less than 1 g) adiabatic calorimetry | 154.82
318.66 K, Small (less than 1 g) adiabatic calorimetry | 155.48
320 K, Small (less than 1 g) adiabatic calorimetry | 155.9
320.8 K, DSC | 155.48
321.8 K, DSC | 156.31
321.9 K, Small (less than 1 g) adiabatic calorimetry | 156.23
322.8 K, DSC | 156.31
323.8 K, DSC | 156.31
324.8 K, DSC | 157.14
325.15 K, Small (less than 1 g) adiabatic calorimetry | 157.39
325.8 K, DSC | 157.14
326.8 K, DSC | 157.97
327.8 K, DSC | 157.97
328.41 K, Small (less than 1 g) adiabatic calorimetry | 158.22
328.8 K, DSC | 158.81
329.8 K, DSC | 158.81
330 K, Small (less than 1 g) adiabatic calorimetry | 158.89
330.8 K, DSC | 159.64
331.69 K, Small (less than 1 g) adiabatic calorimetry | 159.39
331.8 K, DSC | 159.64
332.8 K, DSC | 159.64
333.8 K, DSC | 160.47
334.8 K, DSC | 160.47
334.97 K, Small (less than 1 g) adiabatic calorimetry | 160.3
335.8 K, DSC | 161.3
336.8 K, DSC | 161.3
337.8 K, DSC | 161.3
338.28 K, Small (less than 1 g) adiabatic calorimetry | 161.22
338.8 K, DSC | 162.13
339.8 K, DSC | 162.13
340 K, Small (less than 1 g) adiabatic calorimetry | 161.97
340.8 K, DSC | 162.13
341.58 K, Small (less than 1 g) adiabatic calorimetry | 162.8
341.8 K, DSC | 162.96
342.8 K, DSC | 162.96
343.8 K, DSC | 162.96
